Source: ChEMBL document CHEMBL1201862, “PubChem BioAssay data set” (2004)
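Grown in 96-well plates, cells were treated for 48 hours with each compound at five concentrations. Insufficient inhibition: endpoint recorded as highest concentration tested. GI50 = concentration required for 50% inhibition of growth.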 Activity calls are given as the source filed them. Rule as the data show it: active = GI50 up to about 1.1 µM and inactive = higher.

How the values were obtained:
Experiment in all cases: NCI tumour cell line growth inhibition, 48 h
U-251 = system: U-251
SR = system: SR
SF-295 = system: SF-295
OVCAR-3 = system: OVCAR-3
RPMI-8226 = system: RPMI-8226
LOX IMVI = system: LOX IMVI
MDA-MB-231 = system: MDA-MB-231
OVCAR-8 = system: OVCAR-8
HCT-116 = system: HCT-116
RXF 393 = system: RXF 393
SN12C = system: SN12C
DU-145 = system: DU-145
M14 = system: M14
SNB-19 = system: SNB-19
SW-620 = system: SW-620
HCC 2998 = system: HCC 2998
OVCAR-4 = system: OVCAR-4
CAKI-1 = system: CAKI-1

Measured: GI50

Oc1ccc(CCNCc2cc3c(cc2Br)OCO3)cc1
inactive: U-251 77.8 µM | SR 32.4 µM | SF-295 65.2 µM | OVCAR-3 30.1 µM | RPMI-8226 27.9 µM | LOX IMVI 88.9 µM | MDA-MB-231 55.3 µM | OVCAR-8 > 100 µM | HCT-116 61.7 µM | RXF 393 69.5 µM | SN12C 66.8 µM | DU-145 > 100 µM | M14 38.1 µM | SNB-19 > 100 µM | SW-620 > 100 µM

O=c1oc2ccccc2c2nc3ccccc3cc12
inactive: HCC 2998 72.1 µM | U-251 30.1 µM | SR > 100 µM | SF-295 34.8 µM | OVCAR-4 22.1 µM | CAKI-1 33.8 µM | RPMI-8226 > 100 µM | MDA-MB-231 23 µM | OVCAR-8 46.7 µM | HCT-116 40.2 µM | RXF 393 29.2 µM | SN12C 99.1 µM | DU-145 > 100 µM | M14 > 100 µM | SNB-19 23.3 µM | SW-620 > 100 µM

NC1(c2cc3ccccc3s2)CCCCCC1
inactive: HCC 2998 1.98 µM | U-251 15.7 µM | SR 16.2 µM | SF-295 18.3 µM | OVCAR-4 14.4 µM | OVCAR-3 15.7 µM | CAKI-1 13.8 µM | LOX IMVI 17.9 µM | MDA-MB-231 15.7 µM | OVCAR-8 17.3 µM | HCT-116 16.1 µM | RXF 393 12.7 µM | SN12C 16.8 µM | DU-145 17.2 µM | M14 18.8 µM | SNB-19 18.2 µM | SW-620 16.3 µM

C1=N\CCNCC/N=C\c2ccc(cc2)OCc2cccc(n2)COc2ccc/1cc2
inactive: U-251 32 µM | SR > 100 µM | SF-295 24.7 µM | OVCAR-4 97.3 µM | OVCAR-3 > 100 µM | CAKI-1 > 100 µM | RPMI-8226 > 100 µM | MDA-MB-231 30.7 µM | OVCAR-8 39.5 µM | HCT-116 > 100 µM | RXF 393 98.9 µM | SN12C > 100 µM | DU-145 > 100 µM | M14 77.6 µM | SNB-19 49 µM | SW-620 > 100 µM

COc1ccc(N2C(=O)CC(C3CC(C(C)(C)C)CCC3=O)C2=O)cc1 (configuration not stated)
inactive: HCC 2998 > 100 µM | U-251 > 100 µM | SR > 100 µM | OVCAR-4 > 100 µM | CAKI-1 > 100 µM | RPMI-8226 > 100 µM | MDA-MB-231 > 100 µM | OVCAR-8 > 100 µM | HCT-116 > 100 µM | RXF 393 > 100 µM | SN12C > 100 µM | DU-145 > 100 µM | M14 > 100 µM | SNB-19 > 100 µM | SW-620 > 100 µM

CC12CP(=O)(c3ccccc3)CC1c1ccccc1C2c1ccccc1 (configuration not stated)
inactive: HCC 2998 17.7 µM | U-251 16.5 µM | SR 14.3 µM | SF-295 15.6 µM | OVCAR-3 16.7 µM | MDA-MB-231 18.5 µM | OVCAR-8 15.2 µM | HCT-116 14.3 µM | RXF 393 20.8 µM | SN12C 17.9 µM | DU-145 21 µM | M14 17.5 µM | SNB-19 48 µM | SW-620 17 µM

NC1CC(=O)c2cc(Br)sc21 (configuration not stated)
inactive: HCC 2998 > 100 µM | U-251 > 100 µM | SR > 100 µM | OVCAR-3 > 100 µM | CAKI-1 > 100 µM | RPMI-8226 > 100 µM | MDA-MB-231 > 100 µM | OVCAR-8 > 100 µM | HCT-116 > 100 µM | RXF 393 > 100 µM | SN12C > 100 µM | DU-145 > 100 µM | M14 > 100 µM | SNB-19 > 100 µM | SW-620 > 100 µM

CCOC(=O)C1(C(=O)OCC)C[C@H](C)[C@](C)(O)C1
inactive: U-251 > 100 µM | SR > 100 µM | SF-295 > 100 µM | OVCAR-4 > 100 µM | OVCAR-3 > 100 µM | CAKI-1 > 100 µM | RPMI-8226 > 100 µM | LOX IMVI > 100 µM | MDA-MB-231 > 100 µM | OVCAR-8 > 100 µM | HCT-116 > 100 µM | RXF 393 > 100 µM | SN12C > 100 µM | DU-145 > 100 µM | M14 > 100 µM | SNB-19 > 100 µM | SW-620 > 100 µM

CC(C)(C)OC(=O)NC12C3C4C1C1C2C3C41NC(=O)OC(C)(C)C (configuration not stated)
inactive: HCC 2998 > 100 µM | U-251 37.8 µM | SR 47.5 µM | SF-295 48.1 µM | OVCAR-4 35.4 µM | OVCAR-3 79.3 µM | CAKI-1 > 100 µM | LOX IMVI 36.1 µM | MDA-MB-231 26 µM | OVCAR-8 30.5 µM | HCT-116 47.3 µM | RXF 393 28.5 µM | SN12C 88.5 µM | DU-145 68.4 µM | M14 50 µM | SNB-19 > 100 µM | SW-620 62.8 µM
